From ChEMBL document CHEMBL6134771, “Ligand-centred phenotype-driven development of potent kinase inhibitors against oesophageal cancer” (RSC Med Chem, 2025)
Calls of active or inactive are those of the source. No cut-off for these calls is given here.

What was measured:
OE33 [1] = assay: cells; details: Homo sapiens, OE33, 120 h
Description: Antiproliferative activity against human OE33 cells assessed as reduction in cell viability measured after 5 days by PrestoBlue reagent based fluorescence analysis

cells [2] = details: Homo sapiens, FLO-1, 120 h
Description: Antiproliferative activity against human FLO-1 cells assessed as reduction in cell viability measured after 5 days by PrestoBlue reagent based fluorescence analysis

FLO-1 = assay: Antiproliferative activity against human FLO-1 cells assessed as reduction in cell viability at 0.003 to 30 uM measured after 5 days by PrestoBlue reagent based fluorescence analysis; format: functional; details: dose 0.003-30 µM, time 5.0 day
OE33 [3] = assay: Antiproliferative activity against human OE33 cells assessed as reduction in cell viability at 0.003 to 30 uM measured after 5 days by PrestoBlue reagent based fluorescence analysis; format: functional; details: dose 0.003-30 µM, time 5.0 day
MFD-1 = assay: Antiproliferative activity against human MFD-1 cells assessed as reduction in cell viability at 0.003 to 30 uM measured after 5 days by PrestoBlue reagent based fluorescence analysis; format: functional; details: dose 0.003-30 µM, time 5.0 day
EPC-2 = assay: Antiproliferative activity against human EPC-2 cells assessed as reduction in cell viability at 0.003 to 30 uM measured after 5 days by PrestoBlue reagent based fluorescence analysis; format: functional; details: dose 0.003-30 µM, time 5.0 day
JH-EsoAd1 = assay: Antiproliferative activity against human JH-EsoAd1 cells assessed as reduction in cell viability at 0.003 to 30 uM measured after 5 days by PrestoBlue reagent based fluorescence analysis; format: functional; details: dose 0.003-30 µM, time 5.0 day
SKGT4 = assay: Antiproliferative activity against human SKGT4 cells assessed as reduction in cell viability at 0.003 to 30 uM measured after 5 days by PrestoBlue reagent based fluorescence analysis; format: functional; details: dose 0.003-30 µM, time 5.0 day
cells [4] = details: Homo sapiens, MFD-1, 120 h
Description: Antiproliferative activity against human MFD-1 cells assessed as reduction in cell viability measured after 5 days by PrestoBlue reagent based fluorescence analysis

cells [5] = details: Homo sapiens, SKGT4, 120 h
Description: Antiproliferative activity against human SKGT4 cells assessed as reduction in cell viability measured after 5 days by PrestoBlue reagent based fluorescence analysis

CP-A = assay: Antiproliferative activity against human CP-A cells assessed as reduction in cell viability at 0.003 to 30 uM measured after 5 days by PrestoBlue reagent based fluorescence analysis; format: functional; details: dose 0.003-30 µM, time 5.0 day
OACp4C = assay: Antiproliferative activity against human OACp4C cells assessed as reduction in cell viability at 0.003 to 30 uM measured after 5 days by PrestoBlue reagent based fluorescence analysis; format: functional; details: dose 0.003-30 µM, time 5.0 day
Aurora kinase A = target: T1, Aurora kinase A (Homo sapiens, UniProt O14965); assay: Inhibition of recombinant AuroraA (unknown origin)
T1 sequence (O14965 whole entry): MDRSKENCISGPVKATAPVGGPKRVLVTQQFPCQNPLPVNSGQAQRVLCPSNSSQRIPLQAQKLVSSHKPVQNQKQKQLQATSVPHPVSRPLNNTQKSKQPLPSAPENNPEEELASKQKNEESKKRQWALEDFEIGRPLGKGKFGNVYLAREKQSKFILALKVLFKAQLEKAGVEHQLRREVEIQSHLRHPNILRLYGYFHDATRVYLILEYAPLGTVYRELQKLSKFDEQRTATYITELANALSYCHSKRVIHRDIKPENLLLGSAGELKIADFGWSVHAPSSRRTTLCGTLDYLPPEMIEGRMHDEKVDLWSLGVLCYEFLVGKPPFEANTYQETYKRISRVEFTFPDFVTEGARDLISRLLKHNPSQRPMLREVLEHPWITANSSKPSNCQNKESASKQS

Row | SMILES | Activity (FLO-1) | Activity (OE33 [3]) | further results
1 | CNc1ncc2c(/C=C/C(=O)N3CCC(OC)CC3)nn(CC3CCCC3)c2n1 | Active |  | EC50 (OE33 [1]): < 9000 nM; EC50 (cells [2]): < 9000 nM
2 | CNc1ncc2c(/C=C/C(=O)N3CCC(O)CC3)nn(CC3CCCC3)c2n1 | Active |  | 
3 | Nc1ncnc2c1c(/C=C/C(=O)N1CCC(c3ccccc3)CC1)nn2CC1CCCC1 |  |  | EC50 (OE33 [1]): ~30000 nM; EC50 (cells [2]): ~30000 nM
4 | CNc1ncc2c(/C=C/C(=O)N3CCC(OC)CC3)nn(Cc3ccccc3)c2n1 | Active | Active | 
5 | CNc1ncc2c(/C=C/C(=O)N3CCCC(OC)C3)nn(Cc3cccc(C)c3)c2n1 (stereo not given) | inactive | inactive | 
6 | CNc1ncc2c(/C=C/C(=O)N3CCC(OC)CC3)nn(Cc3ccc(OC)cc3)c2n1 | Active; Partial Restoration Of Antiproliferative Activity Observed | Active; Partial Restoration Of Antiproliferative Activity Observed | 
7 | CNc1ncc2c(/C=C/C(=O)N3CCC(OC)CC3)nn(CCC(C)C)c2n1 | inactive | inactive | 
8 | CNc1ncc2c(/C=C/C(=O)N3CCCCC3)nn(CC3CCCC3)c2n1 | Active |  | 
9 | CN(C)C1CCN(C(=O)/C=C/c2nn(CC3CCCC3)c3ncnc(N)c23)CC1 | inactive | inactive | 
10 | CNc1ncc2c(/C=C/C(=O)N3CCC(CCO)CC3)nn(CC3CCCC3)c2n1 | Active |  | 
11 | Nc1ncnc2c1c(/C=C/C(=O)N1CCCC1)nn2CC1CCCC1 |  |  | EC50 (OE33 [1]): ~30000 nM; EC50 (cells [2]): ~30000 nM
12 | CNc1ncc2c(/C=C/C(=O)N3CCC(N(C)C)CC3)nn(CC3CCCC3)c2n1 | Active |  | 
13 | Nc1ncnc2c1c(/C=C/C(=O)O)nn2CC1CCCC1 | inactive | inactive | 
14 | CNc1ncc2c(/C=C/C(=O)N3CCC(OC)CC3)nn(Cc3ccc(C(F)(F)F)cc3)c2n1 | Active; Partial Restoration Of Antiproliferative Activity Observed | Active; Partial Restoration Of Antiproliferative Activity Observed | 
15 | CNc1ncc2c(/C=C/C(=O)N3CCC(OC)CC3)nn(Cc3ccccc3OC)c2n1 | inactive | inactive | 
16 | CCOC(Cn1nc(/C=C/C(=O)N2CCC(OC)CC2)c2cnc(NC)nc21)OCC | inactive | inactive | 
17 | Nc1ncnc2c1c(/C=C/C(=O)N1CCC(CCO)CC1)nn2CC1CCCC1 | inactive | inactive | 
18 | CNc1ncc2c(/C=C/C(=O)N3CCC(OC)CC3)nn(Cc3ccccc3C)c2n1 | inactive | inactive | 
19 | COC1CCN(C(=O)/C=C/c2nn(CC3CCCC3)c3ncnc(N)c23)CC1 | inactive | inactive | 
20 | CCOC1CCN(C(=O)/C=C/c2nn(Cc3cccc(C)c3)c3nc(NC)ncc23)CC1 | inactive | inactive | 
21 | CNc1ncc2c(/C=C/C(=O)N3CCC(OC)CC3)nn(CC3CCCO3)c2n1 (stereo not given) | inactive | inactive | 
22 | CNc1ncc2c(/C=C/C(=O)N3CCC(OC)CC3)nn(CC(C)(C)C)c2n1 | inactive | inactive | 
23 | CNc1ncc2c(/C=C/C(=O)N3CCC(OC)CC3)nn(Cc3ccc(C)cc3)c2n1 | Active; Partial Restoration Of Antiproliferative Activity Observed | Active; Partial Restoration Of Antiproliferative Activity Observed | 

Row | SMILES | Activity (FLO-1) | Activity (OE33 [3]) | further results
24 | CNc1ncc2c(/C=C/C(=O)N3CCC(COC)CC3)nn(Cc3cccc(C)c3)c2n1 | inactive | inactive | 
25 | CNc1ncc2c(/C=C/C(=O)N3CCC(OC)CC3)nn(CC(OC)OC)c2n1 | inactive | inactive | 
26 | CN(C)C1CCCN(C(=O)/C=C/c2nn(CC3CCCC3)c3ncnc(N)c23)C1 (stereo not given) | inactive | inactive | 
27 | Nc1ncnc2c1c(/C=C/C(=O)N1CCC(O)CC1)nn2CC1CCCC1 | inactive | inactive | 
28 | CNc1ncc2c(/C=C/C(=O)N3CCC(OC)CC3)nn(CC3OCCO3)c2n1 | inactive | inactive | 
29 | CNc1ncc2c(/C=C/C(=O)N3CCC(C)CC3)nn(CC3CCCC3)c2n1 | Active |  | 
30 | CNc1ncc2c(/C=C/C(=O)O)nn(CC3CCCC3)c2n1 | inactive | inactive | 
31 | CNc1ncc2c(/C=C/C(=O)N3CCC4(CC3)OCCO4)nn(Cc3cccc(C(F)(F)F)c3)c2n1 |  |  | EC50 (OE33 [1]): 560 nM; EC50 (cells [2]): 700 nM; Activity (MFD-1): Active; Activity (EPC-2): Active; Activity (JH-EsoAd1): Active; Activity (SKGT4): Active; EC50 (cells [4]): 920 nM; EC50 (cells [5]): 2900 nM; Activity (CP-A): Active; Activity (OACp4C): Active
32 | CNc1ncc2c(/C=C/C(=O)N3CCC(OC)CC3)nn(CC3CCCCC3)c2n1 | Active | Active | 
33 | CNc1ncc2c(/C=C/C(=O)N3CCCC(N(C)C)C3)nn(CC3CCCC3)c2n1 (stereo not given) | Active |  | 
34 | CNc1ncc2c(/C=C/C(=O)N3CCC4(CC3)OCCO4)nn(Cc3cccc(C)c3)c2n1 | Active | Active | EC50 (OE33 [1]): 830 nM; EC50 (cells [2]): 1240 nM
35 | CC1CCN(C(=O)/C=C/c2nn(CC3CCCC3)c3ncnc(N)c23)CC1 | inactive | inactive | 
36 | CNc1ncc2c(/C=C/C(=O)N3CCC(OC)CC3)nn(C(C)C)c2n1 | inactive | inactive | 
37 | CNc1ncc2c(/C=C/C(=O)N3CCC(OC)CC3)nn(Cc3cccc(C(F)(F)F)c3)c2n1 |  |  | IC50 (Aurora kinase A): 1450 nM
38 | Nc1ncnc2c1c(/C=C/C(=O)N1CCCCC1)nn2CC1CCCC1 | inactive | inactive | 
39 | Nc1ncnc2c1c(/C=C/C(=O)N1CCOCC1)nn2CC1CCCC1 | inactive | inactive | 
40 | CNc1ncc2c(/C=C/C(=O)N3CCC(OC)CC3)nn(Cc3cccc(C)c3)c2n1 | Active | Active | EC50 (OE33 [1]): 1800 nM; EC50 (cells [2]): 2500 nM
41 | CNc1ncc2c(/C=C/C(=O)N3CCOCC3)nn(CC3CCCC3)c2n1 | Active |  | 
42 | COC(=O)/C=C/c1nn(CC2CCCC2)c2ncnc(N)c12 | inactive | inactive | 
43 | CNc1ncc2c(/C=C/C(=O)N3CCC(OC)CC3)nn(Cc3cccc(OC)c3)c2n1 | Active | Active | 
44 | CNc1ncc2c(/C=C/C(=O)N3CCC(c4ccccc4)CC3)nn(CC3CCCC3)c2n1 | Active |  | 
45 | CNc1ncc2c(/C=C/C(=O)N3CCC(OC)CC3)nn(Cc3ccccc3C(F)(F)F)c2n1 | inactive | inactive | 
46 | CNc1ncc2c(/C=C/C(=O)N3CCCC3)nn(CC3CCCC3)c2n1 | Active |  | 
